Publication PMC6383986, “Fragment-Based Covalent Ligand Screening Enables Rapid Discovery of Inhibitors for the RBR E3 Ubiquitin Ligase HOIP” (Journal of the American Chemical Society, 2019)

Biological target: T1, wild type HOIP RBR domain (Homo sapiens, UniProt Q96EP0)
T1 construct: made in house; host or cells: E. coli BL21-GOLD(DE3)
T1 sequence (Q96EP0 697-1072): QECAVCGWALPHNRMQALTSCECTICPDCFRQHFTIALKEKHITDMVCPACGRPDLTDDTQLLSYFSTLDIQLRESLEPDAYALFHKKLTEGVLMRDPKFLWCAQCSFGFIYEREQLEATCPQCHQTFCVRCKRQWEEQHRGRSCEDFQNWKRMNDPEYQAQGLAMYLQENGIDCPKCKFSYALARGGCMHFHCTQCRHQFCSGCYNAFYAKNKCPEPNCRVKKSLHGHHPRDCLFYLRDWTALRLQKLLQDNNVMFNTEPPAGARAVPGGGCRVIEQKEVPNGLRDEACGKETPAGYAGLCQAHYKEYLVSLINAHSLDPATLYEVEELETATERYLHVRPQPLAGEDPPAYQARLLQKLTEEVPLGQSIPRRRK
Assay: Protein LC-MS kinetics of covalent labeling
Format: binding
Method: negative control and compound solutions data points were acquired after 0.5, 4, and 24 h […]
Protocol as described above, using the HOIP RBR C885S mutant (155 µM stock solution in 50 mM HEPES, 150 mM NaCl, 1 mM DTT, pH 7.5) and 50 mM HEPES, 150 mM NaCl, pH 7.5 buffer.
The stock solution at 4 µM (25 µL per sample, final concentration 2 µM, 87 µg/mL), was mixed with buffer (24.5 µL) and compound (5) (0.5 µL of 2, and 20 mM stock solutions in DMSO, giving a final concentration of 20 and 200 µM respectively, and 1% DMSO). Data points were acquired after 0.5 and 4 h incubation.
The HOIP RBR domain wild type was diluted with 50 mM HEPES, 150 mM NaCl, pH 7.5 buffer to afford a new stock solution at 2.02 µM, which was aliquoted into 10 × 297 µL. Compound (5) stock solutions (3.0 µL each) at 0, 0.2, 0.8, 2, 4, 10, 20 and 40 mM in DMSO were added to give final compound concentrations at 0, 2, 8, 20, 40, 100, 200 and 400 µM respectively. Immediately after addition the samples were vortexed briefly and the time zero aliquots (25 µL) withdrawn, flash frozen in liquid nitrogen and stored at -80 °C. The protein solutions were incubated at 800 rpm (Eppendorf Thermomixer), 23 °C. Additional aliquots (all 25 µL) were similarly withdrawn after […]
thawed individually and analyzed by protein mass spectrometry as described above. The total ion counts (TICs) detected for unlabelled HOIP and labelled HOIP-(5) conjugate within a peak elution range of 10 seconds were used to calculate the ratio of labelled HOIP RBR over total HOIP RBR content for each sample. The averaged data from 3 independent experiments were analyzed according to a two-step model of reversible ligand binding followed by irreversible covalent modification (Supplementary Figure S2A),11 fitted to a single exponential equation (equation 1, Supplementary Figure S2B) using GraFit (v.7). The observed rate constants (kobs) relate to Kd and kinact as depicted in equation 2 (Supplementary Figure S2C), although for compounds with weak affinities (such as fragments) the Kd is typically larger than the highest tested compound concentration (limited by aqueous solubility), and the kobs display a linear relationship to compound concentration, and a slope that equals to kinact/Kd (Figure 3D, Supplementary Figure […]
Protein labelling: The HOIP RBR domain (16 µM) in buffer (50 mM HEPES, 150 mM NaCl, pH 7.5) was incubated with compound (5) (267 µM; 16-fold excess) at ambient temperature at 600 rpm (Heidolph Instruments) for 21 h. The protein was purified on a buffer exchanged spin chromatography column (Micro Bio-spin 6, Bio-Rad Laboratories) according to the vendor’s instructions to afford a stock solution of the HOIP RBR-(5) complex at a concentration of 7.6 µM (0.33 mg/mL) as determined by Nanodrop UV spectrophotometer. […]

Structure (SMILES): COC(=O)/C=C/CNC(=O)c1cc2c([nH]c1=O)CCC2 [Compound 5]
- kinact/Kd (gradient of kobs vs concentration, 0-400 μM, 2 μM protein): 0.97 ± 0.01 M^–1 s^–1
- ligand efficiency, LE (inferred from lower limit of Kd): < 0.24
- kinact (lower limit, following from Kd limit): > 0.0004 s⁻¹
- Kd (lower limit, kobs linear across range tested): > 400 µM
